The record followed here is publication PMC6207720, “Identification and antitumor activity of a novel inhibitor of the NIMA-related kinase NEK6” (Scientific Reports, 2018).

Where two headings read alike, the source gives them in different places.

Test [1] has as its system PEO1 (ovary). Briefly: Cell-based cytotoxicity assay (ATPlite), PEO1. More on the design: species or system human. Particulars: 72 h. From the text:
The following human carcinoma cell lines were used for the study: MDA-MB-231 and MCF-7 (breast cancer; ATCC, Sesto San Giovanni, MI), PEO1 and COV318 (ovarian cancer; ECACC, Salisbury, UK and ATCC), HCT-15 and SW948 (colon cancer; Public Health England, Salisbury, UK and ATCC), NCI-H1975 and NCI-H1299, (lung cancer; ATCC). Cells were routinely tested free of mycoplasma (MycoAlert mycoplasma detection kit, LONZA, Rockland, ME, USA) and validated by STR (Short Tandem Repeat) DNA profiling (BMR Genomics srl, PD). Cells were grown following supplier indication, in a fully humidified atmosphere of 5% CO2/95% air. All the reagents were purchased from Sigma-Aldrich (St. Louis, MO), if not otherwise specified.
(In general: Cellular ATP, detected with luciferase, serves as a proxy for viable cell number.)

Test [2] concerns the target T1, NEK6 (Homo sapiens, UniProt Q9HC98).
T1 construct: purchased Carna 05-130
Briefly: LANCE-Ultra NEK6 kinase assay. It is filed as biochemical. Particulars: 100 µM ATP. Here is the method:
The twenty-five compounds resulting from virtual screening were firstly tested for the ability to inhibit the enzymatic activity of NEK6 at a single concentration of 30 µM, using LANCE technology. Quercetin, able to inhibit a broad panel of kinase, was used as positive control of inhibition[12],[30]. This initial screening allowed the identification of two compounds determining >70% NEK6 inhibition at 30 µM, i.e. compound 8 (6-hydroxy-4-methyl-2-oxo-5-[(5-phenyl (2-furyl)) methylene] pyridine-3-carbonitrile), and 21 (6-amino-2-phenyl-5,7,9-triazatetracyclo[8.7.0.0^3,^8 0^11,^16]heptadeca-1(10),3(8),6,11,13,15 hexaene-4,17-dione) (Fig. 4). […] The possible binding mode of compound 8 in the ATP-binding site of NEK6 as well as nonbonded interactions across the complex interface are shown in Fig. 6. Compound 8 may use its phenyl ring and furyl ring to form hydrophobic Pi-alkyl interactions with Ala72 (strand β3), Ala125 (hinge region) and Val59 (strand β2) of the ATP binding site (Fig. 6B). […] This is particulary relevant when considering that C–H···O hydrogen bonds play an important role in the ligand-binding process[33]–[35].
Compounds (i.e. 1 to 25) (Molport, Riga, LV-1011, Latvia) were dissolved in DMSO 100% as 10 mM stock and stored at −20 C. Activity of the compounds as NEK6 inhibitors was tested using LANCE NEK6 Ultra Kinase Assays protocol (U-TRF #25 technical note, PerkinElmer, Monza, MB). Compounds were first tested at 30 µM and incubated with 4 nM NEK6 (Carna, Chuo-ku, Kobe, Japan, # 05-130), 50 nM ULight-p70 S6K Peptide (PerkinElmer # TRF0126) and 100 μM ATP (Sigma-Aldrich, Saint Louis, U.S.A, # A2383) at room temperature. Kinase reactions were terminated after 90 minutes by the addition of EDTA and the signal was read with the Enspire plate reader (PerkinElmer) in TR-FRET mode (excitation at 320 nm and emission at 665 nm) after 60 minutes. Inhibition of NEK6 activity was calculated as percentage with respect to the control sample (100% of activity). Quercetin was used as positive control (Molport). […] For each compound the dose inhibiting 50% of NEK6 activity (IC50) was calculated using the GraphPad Prism 5.0 Software (San Diego, CA, USA).
(In general: Time-resolved FRET reads energy transfer from a long-lived donor to a nearby acceptor.)

Test [3] concerns the target T1, NEK6. Briefly: Off-chip Mobility Shift Assay (MSA), NEK6. It is filed as biochemical. Particulars: CARNA Biosciences Study CBS170097, ATP 75 µM. Here is the method: Therefore, we decided to evaluate the selectivity of compound 8 against a panel of NEK kinases at 10 µM, using the technique of Off-chip Mobility shift assay. This concentration was chosen according to the guidelines proposed by Knight and Shokat, since the probability of off-target effects increases dramatically above 10 µM[36]. Furthermore, ATP concentration was set to approximate the Km,ATP for each kinase, so that the resulting selectivity profile directly reflects the intrinsic affinities of the inhibitor[37]. […] A major consequence of this substitution may be the redistribution of surface charges at the flexible activation loop resulting in an altered electrostatic potential and ability of NEK6 kinase to interact with other molecules.
The inhibitory activity of compounds 8 and 21 on NEK6 was also verified with MSA technique (Off-chip Mobility shift assay) (CARNA Biosciences Study ID: CBS170097, CARNA Biosciences, Kobe). […] PKR Inhibitor was used as positive control. For profiling study against NEK kinases (i.e. NEK1, NEK2, NEK6, NEK7, NEK9) (CARNA Biosciences Study ID: CBS170098), 8 was tested at 10 μM and ATP concentration approximating Km for each kinase. Assay condition for kinases are available on “Kinase profiling book” downloading by www.carnabio.com (https://www.carnabio.com/output/pdf/ProfilingProfilingBook_en.pdf).

T1 sequence (Q9HC98 whole entry): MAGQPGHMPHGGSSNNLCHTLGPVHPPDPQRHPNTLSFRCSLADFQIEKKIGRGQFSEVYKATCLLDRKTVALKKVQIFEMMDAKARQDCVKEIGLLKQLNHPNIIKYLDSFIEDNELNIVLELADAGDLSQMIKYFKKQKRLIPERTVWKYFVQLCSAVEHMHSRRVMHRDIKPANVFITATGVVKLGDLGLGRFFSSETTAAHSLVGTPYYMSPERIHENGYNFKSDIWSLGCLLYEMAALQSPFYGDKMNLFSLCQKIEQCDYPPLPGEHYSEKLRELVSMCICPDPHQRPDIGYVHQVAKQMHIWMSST

Take `N.N.[Cl][Pt][Cl]` [cisplatin]: the half-maximal inhibitory concentration (IC50) (usually the concentration needed to halve the response being measured) in test [1] (PEO1, cisplatin alone, read-out: Cisplatin IC50 (mean ± SEM)) amounted to 7.9 ± 0.65 µM.

For the compound `CC(=O)O[C@H]1C(=O)[C@@]2(C)[C@H]([C@H](OC(=O)c3ccccc3)[C@]3(O)C[C@H](OC(=O)[C@H](O)[C@@H](NC(=O)c4ccccc4)c4ccccc4)C(C)=C1C3(C)C)[C@]1(OC(C)=O)CO[C@@H]1C[C@@H]2O` [paclitaxel], the IC50 in test [1] (Homo sapiens, PEO1, paclitaxel alone, read-out: IC50 paclitaxel) was determined as 0.007 ± 1e-06 µM.

For `Nc1nc2c(c(=O)[nH]1)C(c1ccccc1)C1=C(N2)c2ccccc2C1=O` (centres unmarked) [Compound 21, 6-amino-2-phenyl-5,7,9-triazatetracyclo[8.7.0.0^3,^8 0^11,^16]heptadeca-1(10),3(8),6,11,13,15 hexaene-4,17-dione], the half-inhibitory concentration (IC50) in test [2] (LANCE-Ultra, mean ± SEM of 4 independent experiments) turned out to be 2.6 ± 0.05 µM; in test [3] it was 49.8 µM. For the same compound, the inhibition (commonly how much of the control response was suppressed) at 30 µM in test [2] (single concentration 30 µM, LANCE) was > 70%.
